These results are taken from PMC4607890, “The identification of novel Mycobacterium tuberculosis DHFR inhibitors and the investigation of their binding preferences by using molecular modelling” (Scientific Reports, 2015).

The structures appear in SMILES notation.

One experiment has as its target T1, h-DHFR (Homo sapiens, UniProt P00374).
T1 construct: made in house
T1 sequence (P00374 1-187): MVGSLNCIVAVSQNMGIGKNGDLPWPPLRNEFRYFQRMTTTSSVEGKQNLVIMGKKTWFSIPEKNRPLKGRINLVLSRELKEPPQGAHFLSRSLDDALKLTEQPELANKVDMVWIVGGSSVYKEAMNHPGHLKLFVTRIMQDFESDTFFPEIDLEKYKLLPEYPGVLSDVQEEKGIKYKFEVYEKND
The experiment can be described thus: in vitro enzyme assay, recombinant h-DHFR (NADPH oxidation at 340 nm). The format is biochemical. To be noted: recombinant enzyme 20 nM, 40 μM NADPH, 40 μM dihydrofolate, pH 7.0, 25 °C.

The next experiment addresses T2, mt-DHFR (Mycobacterium tuberculosis, UniProt P9WNX1).
T2 construct: made in house
The experiment in a line: biochemical. The format is biochemical. To be noted: for Ratio h-DHFR/mt-DHFR: ratio of IC50 values; for potency on mt-DHFR compared to h-DHFR: in vitro enzyme assays.

Experiment [1] has as its system M. tuberculosis H37Ra (ATCC 25177). The experiment in a line: Microbroth culture for bacteriostatic and bactericidal activity (OD readings, subculture on 7H10 agar). The format is cell-based, Mycobacterium tuberculosis. To be noted: Mtb H37Ra; for growth inhibition on the test strain: overall. As to the method: The anti-mycobacterial activity of the compounds was tested by the measurement of OD readings and agar plate cultures. The test strain used was a stock culture of M. tuberculosis H37Ra (ATCC 25177) stored at −80 °C. Prior to testing, the stock culture was thawed and grown on Middlebrook 7H10 agar (Difco, USA) to check for viability and purity. To prepare the inoculum, a suspension of the culture in Middlebrook 7H9 broth (Difco, USA) was adjusted to a turbidity equivalent to McFarland standard no.1 and further diluted to a final concentration of approximately 10^5 cfu/ml. The compounds were dissolved in DMSO and diluted in 1% DMSO in 7H9 broth to obtain 100 μg/ml, 50 μg/ml, 10 μg/ml, 5 μg/ml 1 μg/ml and 0.1 μg/ml of compound. Each dilution was pipetted in 150 μl duplicates into a sterile 96-well microtitre plate. Three controls were set up with (a) 1% DMSO in 7H9 broth (b) 7H9 broth without DMSO and (c) p-amino salicylic acid (PAS) at 4 μg/ml (26.12 μM) in 7H9 broth with 1% DMSO. All wells were then inoculated with 10 μl of the mycobacterial culture at 10^5 cfu/ml, sealed with parafilm and incubated at 36 °C for 28 days. OD readings (at 630 nm wavelength) were taken daily using TECAN spectrophotometer with Magellan software version 7.1. In addition, on day 14 and day 28, 10 μl was removed from each well for subculturing on compound-free 7H10 agar plates which were incubated up to six weeks at 36 °C. The number, size and time of appearance of colonies in each subculture was recorded. A random sample of colonies was stained for acid-fastness to exclude non-mycobacterial contamination. […] Compounds showing less increase in OD readings than the no-compound controls but positive growth in the subcultures were deemed to have bacteriostatic activity.

For a further experiment, the system named is mt-DHFR against h-DHFR. More on the design: method as in PMID 17451962. The following applies: TB5 Saccharomyces cerevisiae carrying DHFR genes; cited from earlier work.
For experiment [2], the system named is human DHFR (h-DHFR) and mt-DHFR. The following applies: cited from earlier work.
The mark [3] stands for this setting: compound concentration 0.1 μg/ml.
Setting [4] is: compound concentration 10 μg/ml.
Where [5] appears, read: compound concentration 50 μg/ml.
Setting [6] is: compound concentration 100 μg/ml.

T2 sequence (P9WNX1 whole entry): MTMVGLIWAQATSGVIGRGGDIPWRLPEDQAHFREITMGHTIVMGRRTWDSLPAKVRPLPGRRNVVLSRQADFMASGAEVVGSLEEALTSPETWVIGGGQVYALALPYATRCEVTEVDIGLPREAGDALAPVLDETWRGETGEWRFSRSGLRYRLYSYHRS

With `Nc1nc(N)c(-c2ccc(Cl)c(Cl)c2)c(COc2ccc([N+](=O)[O-])cc2)n1` [Compound 1], the IC50 at h-DHFR and on mt-DHFR was 130 nM throughout. Moreover, the “Ratio h-DHFR/mt-DHFR” value on mt-DHFR is recorded as 1. Also, the “colony counts after four weeks of exposure” value (“colony counts” for short) in experiment [1] (setting [3]), in experiment [1] (compound concentration 1 μg/ml), in experiment [1] (compound concentration 5 μg/ml), in experiment [1] (setting [4]), in experiment [1] (setting [5]) and in experiment [1] (setting [6]) was “+++” throughout.

`Nc1nc(N)c(-c2ccc(Cl)c(Cl)c2)c(COc2cccc3ccccc23)n1` [Compound 2]: the IC50 on h-DHFR is 70 nM; on mt-DHFR, 110 nM. Further, on mt-DHFR, the “Ratio h-DHFR/mt-DHFR” value is 0.64. In addition, the “colony counts” value in experiment [1] (setting [3]) is given as “+++”; in experiment [1] (compound concentration 1 μg/ml), “+++”; in experiment [1] (compound concentration 5 μg/ml), “+++”; in experiment [1] (setting [4]) it was “+++”; in experiment [1] (setting [5]), “++ (++, 11–100 colonies)”; in experiment [1] (setting [6]) it was “++ (++, 11–100 colonies)”.

For the molecule `Nc1nc(N)c(-c2cccc(C(F)(F)F)c2)c(Cc2cccc(C(F)(F)F)c2)n1` [Compound 3], the figures for the IC50 on h-DHFR and on mt-DHFR were 135 nM and 180 nM, respectively. The “Ratio h-DHFR/mt-DHFR” value at mt-DHFR is 0.75. In addition, the “colony counts” value in experiment [1] (setting [3]) is recorded as “+++”; in experiment [1] (compound concentration 1 μg/ml), “+++”; in experiment [1] (compound concentration 5 μg/ml) it was “+++”; in experiment [1] (setting [4]), “+++”; in experiment [1] (setting [5]) it was “++ (++, 11–100 colonies)”; in experiment [1] (setting [6]), “+ (+, 1–10 colonies)”.

On to `Nc1ccc(C(=O)Nc2ccc(OCc3nc(N)nc(N)c3-c3ccc(Cl)cc3)cc2)cc1` [Compound 4], for which the figures for the IC50 on h-DHFR and against mt-DHFR were 2500 nM and 2600 nM, respectively. Moreover, the “Ratio h-DHFR/mt-DHFR” value on mt-DHFR is reported as 0.96. Moreover, the “activity compared with PAS (4 μg/ml)” value in experiment [1] (100 μg/ml) is recorded as “better activity than PAS”. Also, in experiment [1] (100 μg/ml), the “bactericidal activity” value is “bactericidal activity”. Further, the “colony counts” value is given as “+++” in experiment [1] (setting [3]); “+++” in experiment [1] (compound concentration 1 μg/ml); “+++” in experiment [1] (compound concentration 5 μg/ml); “+++” in experiment [1] (setting [4]); “++ (++, 11–100 colonies)” in experiment [1] (setting [5]).

Consider `CC(=O)Nc1cccc(OCc2cccc(N3C(=N)NC(=N)NC3(C)C)c2)c1` [Compound 5], for which the “colony counts” value in experiment [1] (setting [3]), in experiment [1] (compound concentration 1 μg/ml), in experiment [1] (compound concentration 5 μg/ml), in experiment [1] (setting [4]), in experiment [1] (setting [5]) and in experiment [1] (setting [6]) was “+++” in each case.

Take `Nc1nc(N)c2c(ccc3c2ccn3Cc2cccc([N+](=O)[O-])c2)n1` [Compound 6]: the IC50 on h-DHFR was determined as 33 nM; against mt-DHFR, 6 nM. For the same molecule, at mt-DHFR (in vitro enzyme assay), the “inhibition of mt-DHFR” value is on record as “most potent inhibitor of mt-DHFR”. In addition, at mt-DHFR, the “potency on mt-DHFR compared to h-DHFR” value is reported as “more potent inhibitors of mt-DHFR compared to h-DHFR”. Further, on mt-DHFR, the “Ratio h-DHFR/mt-DHFR” value is on record as 5.5. The “activity compared with PAS (4 μg/ml, 26.12 μM)” value in experiment [1] (10 μg/ml (25.37 μM)) is given as “same activity as PAS”. In experiment [1] (10 μg/ml (25.37 μM)), the “colony count” value is listed as “notable reduction in colony count”. Besides, the figures for the “bactericidal activity” value in experiment [1] (50 μg/ml) and in experiment [1] (100 μg/ml) were “bactericidal” and “bactericidal activity”, respectively. The “activity compared with PAS (4 μg/ml)” value in experiment [1] (100 μg/ml) is given as “better activity than PAS”. In addition, the “colony counts” value in experiment [1] (setting [3]) is listed as “+++”; in experiment [1] (compound concentration 1 μg/ml) it was “+++”; in experiment [1] (compound concentration 5 μg/ml) it was “+++”; in experiment [1] (setting [4]) it was “++ (++, 11–100 colonies)”. Further, the “growth inhibition on the test strain” value in experiment [1] is reported as “strongest bactericidal activity”.

For `Nc1nc(N)c2cc(S(=O)(=O)c3ccc(Cl)cc3)ccc2n1` [Compound 7], the IC50 was determined as 440 nM at h-DHFR and 63 nM at mt-DHFR. The “potency on mt-DHFR compared to h-DHFR” value on mt-DHFR was “more potent inhibitors of mt-DHFR compared to h-DHFR”. Moreover, the “Ratio h-DHFR/mt-DHFR” value at mt-DHFR amounted to 6.98. Moreover, the “colony counts” value in experiment [1] (setting [3]), in experiment [1] (compound concentration 1 μg/ml), in experiment [1] (compound concentration 5 μg/ml), in experiment [1] (setting [4]), in experiment [1] (setting [5]) and in experiment [1] (setting [6]) was “+++” in each case. For the same molecule, the “growth inhibition on the test strain” value in experiment [1] is “least growth inhibition, affecting the colony size but not the colony count”.

As for `Nc1nc(N)c2cc(Sc3ccc(Cl)cc3)ccc2n1` [Compound 8], the IC50 was 100 nM on h-DHFR and 40 nM on mt-DHFR. The “potency on mt-DHFR compared to h-DHFR” value at mt-DHFR is given as “more potent inhibitors of mt-DHFR compared to h-DHFR”. In addition, the “Ratio h-DHFR/mt-DHFR” value at mt-DHFR is 2.5. Besides, the “activity compared with PAS (4 μg/ml)” value in experiment [1] (100 μg/ml) is “better activity than PAS”. Besides, the “bactericidal activity” value in experiment [1] (100 μg/ml) is on record as “bactericidal activity”. Further, in experiment [1] (after exposure to 50 μg/ml), the “growth in the 14-day subculture” value was “did not grow”. For the same molecule, in experiment [1] (after exposure to 50 μg/ml), the “growth in the 28-day subculture” value is “formed abundant colonies”. Moreover, the “colony counts” value in experiment [1] (setting [3]), in experiment [1] (compound concentration 1 μg/ml), in experiment [1] (compound concentration 5 μg/ml), in experiment [1] (setting [4]) and in experiment [1] (setting [5]) was “+++” throughout.

With `Nc1nc(N)c(-c2ccccc2)c(CC[C@@H](O)[C@@H](O)CO)n1` [El-7a], the “selectivity for inhibition effects on mt-DHFR against h-DHFR” value in the experiment on mt-DHFR against h-DHFR is on record as “notable selectivity”.

With `CN(Cc1cnc2nc(N)nc(N)c2n1)c1ccc(C(=O)N[C@@H](CCC(=O)O)C(=O)O)cc1` [MTX, Methotrexate], in experiment [2], the “selectivity of binding h-DHFR vs mt-DHFR” value is listed as “without any significant selectivity”.

`Nc1ccc(C(=O)O)c(O)c1` [PAS, p-amino salicylic acid, reference compound]: in experiment [1] (PAS 4 μg/ml (26.12 μM)), the “delay in the appearance of colonies” value is “two-week delay”, the “growth of colonies on 7H10 agar” value is given as “only scanty growth” and the reduction in growth entry is “more than two-log reduction in growth”. For the same molecule, the “colony counts” value in experiment [1] (PAS control at 4 μg/ml (26.12 μM)) is recorded as “++ (++, 11–100 colonies)”.

In general, IC50 refers to the concentration at which inhibition is half-maximal.
